Laboratory results published in patent publication US4443436A, “C-20-Modified macrolide derivatives of the macrolide antibiotics tylosin, desmycosin, macrocin, and lactenocin” (Eli Lilly and Company, priority 1982, dated 1984).
In brackets after ≈: the same amount, converted by molar mass. Where two headings read alike, the source gives them in different places.

Key:
[1] = tested on: Pasteurella multocida 60A; assay: MIC, broth-dilution microtiter test, Pasteurella multocida 60A; assay type: cell-based
Source text: (§1) The MIC's in Table X were obtained using conventional broth-dilution microtiter tests.

[2] = tested on: Staphylococcus aureus S13E; assay: MIC, standard agar-dilution assay, Staphylococcus aureus S13E; assay type: cell-based; conditions: Staphylococcus aureus, S13E
Staphylococcus aureus = assay: MIC, broth-dilution microtiter test, Staphylococcus aureus; assay type: cell-based
Source text: as §1

[3] = tested on: Staphylococcus epidermidis EPI1; assay: MIC, standard agar-dilution assay, Staphylococcus epidermidis EPI1; assay type: cell-based; conditions: Staphylococcus epidermidis, EPI1
Mycoplasma hyorhinis = assay: MIC, broth-dilution microtiter test, Mycoplasma hyorhinis; assay type: cell-based
Source text: as §1

[4] = tested on: Haemophilus influenzae Holt; assay: MIC, standard agar-dilution assay, Haemophilus influenzae Holt; assay type: cell-based
Mycoplasma gallisepticum = assay: MIC, broth-dilution microtiter test, Mycoplasma gallisepticum; assay type: cell-based; conditions: Mycoplasmoides gallisepticum
Source text: as §1

[5] = tested on: Pasteurella multocida 17E; assay: MIC, broth-dilution microtiter test, Pasteurella multocida 17E; assay type: cell-based
Source text: as §1

Streptococcus Group 9960 = assay: MIC, standard agar-dilution assay, Streptococcus Group 9960; assay type: cell-based; conditions: GROUP9960; Streptococcus Group 9960; agar dilution; read-out: MIC
[6] = tested on: Pasteurella hemolytica 22C; assay: MIC, broth-dilution microtiter test, Pasteurella hemolytica 22C; assay type: cell-based; conditions: Pasteurella hemolytica 22C; broth-dilution microtiter; read-out: MIC
Source text: as §1

Mycoplasma synoviae = assay: MIC, broth-dilution microtiter test, Mycoplasma synoviae; assay type: cell-based; conditions: Mycoplasmopsis synoviae
Source text: as §1

[7] = tested on: Staphylococcus aureus X1.1; assay: MIC, standard agar-dilution assay, Staphylococcus aureus X1.1; assay type: cell-based; conditions: Staphylococcus aureus, X1.1
[8] = tested on: Haemophilus influenzae R252; assay: MIC, standard agar-dilution assay, Haemophilus influenzae R252; assay type: cell-based; conditions: Haemophilus influenzae R252; ampicillin-resistant strain; read-out: MIC
Streptococcus bovis 80 = assay: MIC, broth-dilution microtiter test, Streptococcus bovis 80; assay type: cell-based; conditions: Streptococcus equinus
Source text: as §1

[9] = tested on: Streptococcus pyogenes C203; assay: MIC, standard agar-dilution assay, Streptococcus pyogenes C203; assay type: cell-based; conditions: Streptococcus pyogenes, C203
[10] = tested on: Staphylococcus aureus V41; assay: MIC, standard agar-dilution assay, Staphylococcus aureus V41; assay type: cell-based; conditions: Staphylococcus aureus, V41
[11] = tested on: Staphylococcus epidermidis EPI2; assay: MIC, standard agar-dilution assay, Staphylococcus epidermidis EPI2; assay type: cell-based; conditions: Staphylococcus epidermidis, EPI2
[12] = tested on: Staphylococcus aureus X400; assay: MIC, standard agar-dilution assay, Staphylococcus aureus X400; assay type: cell-based; conditions: Staphylococcus aureus, X400
[13] = tested on: Streptococcus pneumoniae Park I; assay: microbe, parasite or virus in culture; assay type: cell-based
[14] = tested on: Streptococcus Group D X66; assay: MIC, standard agar-dilution assay, Streptococcus Group D X66; assay type: cell-based
[15] = tested on: Streptococcus pyogenes C203; assay: In vivo protection of mice experimentally infected with S. pyogenes C203; conditions: Streptococcus pyogenes, mice, doses given 1 and 4 hours post-infection
Description: The C-20 modified derivatives of this invention have shown in vivo antimicrobial activity against experimentally-induced infections in laboratory animals. When two doses of test compound were administered to mice experimentally infected with S. pyogenes C203, the activity observed was measured as an ED50 value [effective dose in mg/kg to protect 50% of the test animals: see Warren Wick, et al., J. Bacteriol. 81, 233-235 (1961)].

[16] = broth-dilution microtiter, read-out: MIC
[17] = Haemophilus influenzae Holt, ampicillin-sensitive strain, read-out: MIC
[18] = Mycoplasma gallisepticum, broth-dilution microtiter, read-out: MIC
[19] = Pasteurella multocida 17E, bovine isolate, broth-dilution microtiter, read-out: MIC
[20] = Mycoplasma synoviae, broth-dilution microtiter, read-out: MIC
[21] = Streptococcus bovis 80, broth-dilution microtiter, read-out: MIC
[22] = Pasteurella multocida 60A, avian isolate, broth-dilution microtiter, read-out: MIC
[23] = Mycoplasma hyorhinis, broth-dilution microtiter, read-out: MIC

**Q.** Which MIC ([1]; Pasteurella multocida, 60A) does the source give for `CCC1OC(=O)CC(O)C(C)C(OC2OC(C)C(O)C(N(C)C)C2O)C(CCO[N+](=O)[O-])CC(C)C(=O)C=CC(C)=CC1COC1OC(C)C(O)C(OC)C1OC` (stereo not drawn) [Compound 28, 20-DH-20-O-NO2-desmycosin] here?
**A.** 50 µg/mL (≈ 61.1 µM)

**Q.** What about the MIC [2] of the same compound?
**A.** 0.25 µg/mL (≈ 0.305 µM)

**Q.** What about the MIC (Staphylococcus aureus; [16]) of the same compound?
**A.** 1.56 µg/mL (≈ 1.9 µM)

**Q.** What about the MIC [3] of the same compound?
**A.** 0.25 µg/mL (≈ 0.305 µM)

**Q.** What about the MIC (Mycoplasma hyorhinis; Mycoplasma) of the same compound?
**A.** 50 µg/mL (≈ 61.1 µM)

**Q.** And the MIC [4, 17]?
**A.** 16 µg/mL (≈ 19.5 µM)

**Q.** What about the MIC (Mycoplasma gallisepticum; [18]) of the same compound?
**A.** 0.78 µg/mL (≈ 0.952 µM)

**Q.** What about the MIC [5, 19] of the same compound?
**A.** 25 µg/mL (≈ 30.5 µM)

**Q.** And the MIC (Streptococcus Group 9960)?
**A.** 8 µg/mL (≈ 9.77 µM)

**Q.** And the MIC [6]?
**A.** 25 µg/mL (≈ 30.5 µM)

**Q.** And the MIC (Mycoplasma synoviae; [20])?
**A.** 0.78 µg/mL (≈ 0.952 µM)

**Q.** What about the MIC [7] of the same compound?
**A.** 0.25 µg/mL (≈ 0.305 µM)

**Q.** What about the MIC [8] of the same compound?
**A.** 16 µg/mL (≈ 19.5 µM)

**Q.** And the MIC (Streptococcus bovis 80; [21])?
**A.** 12.5 µg/mL (≈ 15.3 µM)

**Q.** What about the MIC [9] of the same compound?
**A.** 0.25 µg/mL (≈ 0.305 µM)

**Q.** And the MIC [10]?
**A.** 0.25 µg/mL (≈ 0.305 µM)

**Q.** And the MIC [11]?
**A.** 0.25 µg/mL (≈ 0.305 µM)

**Q.** And the MIC [12]?
**A.** 0.25 µg/mL (≈ 0.305 µM)

**Q.** What about the MIC ([13]; Streptococcus pneumoniae Park I, agar dilution, read-out: MIC) of the same compound?
**A.** 2 µg/mL (≈ 2.44 µM)

**Q.** And the MIC ([14]; Streptococcus Group D X66, agar dilution, read-out: MIC)?
**A.** 8 µg/mL (≈ 9.77 µM)

**Q.** What does the source list for `CCC1OC(=O)CC(O)C(C)C(OC2OC(C)C(OC3CC(C)(O)C(O)C(C)O3)C(N(C)C)C2O)C(CCOC(=O)COc2ccccc2)CC(C)C(=O)C=CC(C)=CC1COC1OC(C)C(O)C(OC)C1OC` (stereo not drawn) [Compound 11, 20-DH-20-O-(Phenoxyacetyl)tylosin]?
**A.** MIC [1, 22]: > 50 µg/mL; MIC [2]: 0.5 µg/mL (≈ 0.475 µM); MIC (Staphylococcus aureus; [16]): 1.56 µg/mL (≈ 1.48 µM); MIC [3]: 0.5 µg/mL (≈ 0.475 µM); MIC (Mycoplasma hyorhinis; [23]): > 50 µg/mL; MIC ([4]; Haemophilus influenzae): > 128 µg/mL; MIC (Mycoplasma gallisepticum; [18]): 1.56 µg/mL (≈ 1.48 µM); MIC [5, 19]: > 50 µg/mL; MIC (Streptococcus Group 9960): 8 µg/mL (≈ 7.6 µM); MIC [6]: > 50 µg/mL; MIC (Mycoplasma synoviae; [20]): 3.12 µg/mL (≈ 2.97 µM); MIC [7]: 0.5 µg/mL (≈ 0.475 µM); MIC [8]: > 128 µg/mL; MIC (Streptococcus bovis 80; [21]): 3.12 µg/mL (≈ 2.97 µM); MIC [9]: 0.5 µg/mL (≈ 0.475 µM); MIC [10]: 0.5 µg/mL (≈ 0.475 µM); MIC [11]: 0.5 µg/mL (≈ 0.475 µM); MIC [12]: 1 µg/mL (≈ 0.95 µM); MIC ([13]; Streptococcus pneumoniae): 0.5 µg/mL (≈ 0.475 µM); MIC [14]: 8 µg/mL (≈ 7.6 µM)

**Q.** `CCOC(=O)NN(CCC1CC(C)C(=O)C=CC(C)=CC(COC2OC(C)C(O)C(OC)C2OC)C(CC)OC(=O)CC(O)C(C)C1OC1OC(C)C(OC2CC(C)(O)C(O)C(C)O2)C(N(C)C)C1O)C(=O)OCC` (stereo not drawn) [Compound 9, 20-DH-DO-20-[N-(Ethoxycarbonyl)-N-(ethoxycarbonylamino)]aminotylosin] was tested. Which MIC [1, 22] did it give?
**A.** > 50 µg/mL

**Q.** And the MIC [2]?
**A.** 2 µg/mL (≈ 1.86 µM)

**Q.** What about the MIC (Staphylococcus aureus) of the same compound?
**A.** 6.25 µg/mL (≈ 5.81 µM)

**Q.** And the MIC [3]?
**A.** 4 µg/mL (≈ 3.72 µM)

**Q.** And the MIC (Mycoplasma hyorhinis; [23])?
**A.** > 50 µg/mL

**Q.** And the MIC [4, 17]?
**A.** > 128 µg/mL

**Q.** What about the MIC (Mycoplasma gallisepticum) of the same compound?
**A.** 1.56 µg/mL (≈ 1.45 µM)

**Q.** And the MIC [5, 19]?
**A.** > 50 µg/mL

**Q.** What about the MIC (Streptococcus Group 9960) of the same compound?
**A.** > 128 µg/mL

**Q.** And the MIC [6]?
**A.** > 50 µg/mL

**Q.** And the MIC (Mycoplasma synoviae; [20])?
**A.** 25 µg/mL (≈ 23.2 µM)

**Q.** What about the MIC [7] of the same compound?
**A.** 2 µg/mL (≈ 1.86 µM)

**Q.** And the MIC [8]?
**A.** > 128 µg/mL

**Q.** And the MIC (Streptococcus bovis 80; [21])?
**A.** > 50 µg/mL

**Q.** What about the MIC [9] of the same compound?
**A.** 16 µg/mL (≈ 14.9 µM)

**Q.** What about the MIC [10] of the same compound?
**A.** 2 µg/mL (≈ 1.86 µM)

**Q.** And the MIC [11]?
**A.** 2 µg/mL (≈ 1.86 µM)

**Q.** What about the MIC [12] of the same compound?
**A.** 8 µg/mL (≈ 7.43 µM)

**Q.** What about the MIC ([13]; Streptococcus pneumoniae) of the same compound?
**A.** 2 µg/mL (≈ 1.86 µM)

**Q.** What about the MIC [14] of the same compound?
**A.** > 128 µg/mL

**Q.** `CCC1OC(=O)CC(O)C(C)C(OC2OC(C)C(OC3CC(C)(O)C(O)C(C)O3)C(N(C)C)C2O)C(CCN2C(=O)c3ccccc3C2=O)CC(C)C(=O)C=CC(C)=CC1COC1OC(C)C(O)C(OC)C1OC` (stereo not drawn) [Compound 1, 20-DH-DO-20-N-Phthalimidotylosin] was tested. Which MIC [1, 22] did it give?
**A.** > 50 µg/mL

**Q.** And the MIC [2]?
**A.** 1 µg/mL (≈ 0.955 µM)

**Q.** What about the MIC (Staphylococcus aureus) of the same compound?
**A.** 6.25 µg/mL (≈ 5.97 µM)

**Q.** What about the MIC [3] of the same compound?
**A.** 1 µg/mL (≈ 0.955 µM)

**Q.** And the MIC (Mycoplasma hyorhinis; [23])?
**A.** > 50 µg/mL

**Q.** And the MIC ([4]; Haemophilus influenzae)?
**A.** > 128 µg/mL

**Q.** What about the MIC (Mycoplasma gallisepticum) of the same compound?
**A.** 3.12 µg/mL (≈ 2.98 µM)

**Q.** What about the MIC ([5]; Pasteurella multocida, 17E) of the same compound?
**A.** > 50 µg/mL

**Q.** And the MIC (Streptococcus Group 9960)?
**A.** 128 µg/mL (≈ 122 µM)

**Q.** And the MIC [6]?
**A.** > 50 µg/mL

**Q.** And the MIC (Mycoplasma synoviae)?
**A.** 6.25 µg/mL (≈ 5.97 µM)

**Q.** And the ED50 ([15]; C203, sc, subcutaneous, read-out: ED50, Subcutaneous)?
**A.** > 6.3 mg/kg

**Q.** And the ED50 ([15]; C203, oral, read-out: ED50, Oral)?
**A.** 71 mg/kg

**Q.** What about the MIC [7] of the same compound?
**A.** 1 µg/mL (≈ 0.955 µM)

**Q.** And the MIC [8]?
**A.** > 128 µg/mL

**Q.** What about the MIC (Streptococcus bovis 80; 80) of the same compound?
**A.** 50 µg/mL (≈ 47.7 µM)

**Q.** What about the MIC [9] of the same compound?
**A.** 2 µg/mL (≈ 1.91 µM)

**Q.** And the MIC [10]?
**A.** 1 µg/mL (≈ 0.955 µM)

**Q.** And the MIC [11]?
**A.** 1 µg/mL (≈ 0.955 µM)

**Q.** What about the MIC [12] of the same compound?
**A.** 2 µg/mL (≈ 1.91 µM)

**Q.** What about the MIC ([13]; Streptococcus pneumoniae) of the same compound?
**A.** 32 µg/mL (≈ 30.6 µM)
